Measured values taken from US20170001988A1, “PIPERIDINE AND PIPERAZINE DERIVATIVES AND THEIR USE IN TREATING VIRAL INFECTIONS AND CANCER” (THE UNITED STATES OF AMERICA, AS REPRESENTED BY THE …, priority 2013, published 2017).

Experiments:
HCVpp GT 1a = format: cell-based, HCV; details: for inhibitory activity in HCVpp GT 1a: 10 μM, Huh 7.5.1 cells
HCV replicon GT 2a = format: cell-based; details: for inhibitory effect in replicon GT 2a cell line: 10 μM, luciferase 48 h
HCVsc, genotype 2a = format: cell-based, HCV; details: for inhibitory activity in the HCVsc infection level: 10 μM, Huh 7.5.1 cells, luciferase 48 h
HCV-Luc [1] = assay: HCV-Luc infection assay; format: cell-based; details: Hepatitis C virus; for EC50: Table 3, read-out: EC50
replicon GT 1a = assay: Transient replicon assay, GT 1a; format: cell-based, HCV; details: 10 μM; 48 h; Huh7.5.1 cells
HCV replicon GT 1b = format: cell-based; details: 10 μM; luciferase 48 h
[2] = test system: HCVcc, genotype 2a, JFH-1 strain; assay: HCVcc assay, extracellular and intracellular viral RNA by quantitative real-time PCR; format: cell-based, HCV; details: for extracellular viral RNA level / intracellular viral RNA level: compound at 10 μM, Huh 7.5.1 cells, 48 h, vs DMSO
Protocol: Huh 7.5.1 cells were seeded in 12-well plates (10^5 cells/well) and cultured overnight. HCVcc was used to infect the cells with the treatment of compounds at 10 μM. Virus-containing medium was removed after 4 h incubation and compound treatment was added back followed by incubation for additional 48 h. Intracellular and extracellular viral RNA levels were evaluated by quantitative real-time PCR. The results are illustrated in FIG. 1 and are the means of three replicates ±SEM. […] Cyclosporin A at 10 μM was used as positive control.
Cell Culture-derived HCV (HCVcc, genotype 2a, JFH-1 strain) system provides direct evidence of anti-HCV activity of the compounds.
(§1) Cell Culture-derived HCV (HCVcc, genotype 2a, JFH-1 strain) system provides direct evidence of anti-HCV activity of the compounds. Determination of both extracellular and intracellular HCV levels can help evaluate whether the compounds interfere early-stage or late-stage infection. […] Cyclosporin A was tested in parallel to serve as control compound targeting early-stage HCV infection. […] At the highest concentration, cyclosporin A caused approximately 4-log fold reduction in intracellular RNA copies, while the extracellular level reduced less than […]. On the contrary, NCGC00345021 led to only about 1-log fold decrease in intracellular RNA copies when causing 3-log fold reduction in extracellular RNA level. Clearly, when the concentration increased, NCGC00345021 led to a more dramatic reduction in extracellular RNA copies.

[3] = ATPLite cytotoxicity assay; details: human, Huh7.5.1 cells
Description: (§2) EC50 was generated using the HCV-Luc infection assay and IC50 using the ATPLite assay.
(§3) EC50 was generated using the HCV-Luc infection assay and TC50 using the ATPLite assay.
(§4) The cytotoxicity of the compounds was further evaluated in HepG2 cells and primary human hepatocytes.

HCVpp GT 1b = format: cell-based, HCV; details: 10 μM; Huh 7.5.1 cells
Huh7.5.1 cells = assay: in vitro; details: human
Description: as §2, §3, §4

HCV genotype 1b = format: in vivo, mice
[4] = ATPlite assay run in parallel with the combination HCV-Luc assay; format: cell-based; details: (S)-CCZ combined with anti-HCV drugs
Protocol: Combination of ribavirin and peginterferon α (IFN-α) has been the standard of care to treat chronic HCV infection for many years. Direct-acting antivirals, such as telaprevir and daclatasvir, were recently approved for therapy of hepatitis C. The combination of (S)-CCZ with these different classes of anti-HCV drugs is described in this example. HCV-Luc assay in parallel with ATPlite assay was performed in the presence of various concentrations of (S)-CCZ in combination with various concentrations of each drug. Using the MacSynergy II program based on Bliss independence model, three-dimensional surface plots were generated and log volume of synergism was calculated for each combination. The results were also analyzed with the CalcuSyn program, in which the combination indices were calculated.

HCV genotype 2a = format: in vivo, mice
GT 2a replicon RNA = assay: Transient replicon assay, GT 2a; format: cell-based, HCV
VSVpp = format: cell-based
Dengue RVP = assay: Dengue Reporter Virus Particles (RVPs) reproducibility assay; details: increasing concentrations; Huh 7.5.1 cells; luciferase 48 h
Protocol: Huh 7.5.1 cells seeded in 96-well plates (10^4 cells/well) were cultured overnight. […] The results are means of three replicates ±SEM.

[5] = test system: HCVcc, genotype 2a, JFH-1 strain; assay: TCID50 determination: re-infection of naive Huh 7.5.1 cells with medium from the HCVcc assay; format: cell-based, HCV; details: medium with extracellular virus used to re-infect naive Huh 7.5.1 cells
Protocol: FIG. 4B illustrates the TCID50 of naïve Huh 7.5.1 cells that were infected using medium collected in the HCVcc assay run using 0.32, 1.0, and 3.2 μM concentrations of NCGC00345021 and 0.032, 0.10 and 0.32 μM concentrations of Cyclosporin A.
as §1

HCV-Luc [6] = assay: HCV-Luc assay of (S)-CCZ combinations, MacSynergy II and CalcuSyn analysis; format: cell-based
Protocol: Direct-acting antivirals, such as telaprevir and daclatasvir, were recently approved for therapy of hepatitis C. […] Using the MacSynergy II program based on Bliss independence model, three-dimensional surface plots were generated and log volume of synergism was calculated for each combination. The results were also analyzed with the CalcuSyn program, in which the combination indices were calculated.

Row | Compound | inhibitory activity in HCVpp GT 1a (HCVpp GT 1a) | inhibitory effect in replicon GT 2a cell line (HCV replicon GT 2a) | inhibitory activity in the HCVsc infection level (HCVsc, genotype 2a) | EC50 (HCV-Luc [1]) [µM] | inhibition in transient replicon GT 1a (replicon GT 1a) | inhibitory effect in replicon GT 1b cell line (HCV replicon GT 1b) | extracellular viral RNA level [2] | intracellular viral RNA level [2] | inhibitory activity in HCVpp GT 1b (HCVpp GT 1b) | CC50 (Huh7.5.1 cells) [µM] | other results
1 | CN1CCN(C(c2ccccc2)c2ccc(Cl)cc2)CC1 (racemic) [racemic CCZ, 1-((4-Chlorophenyl)(phenyl)methyl)-4-methylpiperazine, reference compound] | None of racemic, (R) and (S)-CCZ showed any inhibitory activities | did not show much inhibitory effect | significant inhibitory activities | 0.044 ± 0.011 | no inhibition was observed | did not show much inhibitory effect | reduced | reduced | None of racemic, (R) and (S)-CCZ showed any inhibitory activities |  | CC50 [3]: 49.8 ± 17.2 µM
2 | CN1CCN([C@H](c2ccccc2)c2ccc(Cl)cc2)CC1 [(R)-CCZ, (R)-1-((4-Chlorophenyl)(phenyl)methyl)-4-methylpiperazine] | None of racemic, (R) and (S)-CCZ showed any inhibitory activities | did not show much inhibitory effect | significant inhibitory activities | 0.02 ± 0.005 | no inhibition was observed | did not show much inhibitory effect | reduced | reduced | None of racemic, (R) and (S)-CCZ showed any inhibitory activities | 37.5 ± 4.2 | 
3 | CN1CCN([C@@H](c2ccccc2)c2ccc(Cl)cc2)CC1 [(S)-CCZ, (S)-1-((4-Chlorophenyl)(phenyl)methyl)-4-methylpiperazine] | None of racemic, (R) and (S)-CCZ showed any inhibitory activities | did not show much inhibitory effect | significant inhibitory activities | 0.024 ± 0.009 | no inhibition was observed | did not show much inhibitory effect | reduced | reduced | None of racemic, (R) and (S)-CCZ showed any inhibitory activities | 33.4 ± 2.4 | decrease of genotype 1b virus titer (HCV genotype 1b; 2 mg/kg daily): approximately 1 log; reduction of HCV titer from pretreatment baseline, genotype 1b (HCV genotype 1b; 50 mg/kg and 10 mg/kg daily, 4 weeks of treatment): 2 log; HCV titers during the treatment period (drug resistance), genotype 1b (HCV genotype 1b; during treatment): continued to decline during the treatment period without rebound; cytotoxicity of the combinations [4]: without significant cytotoxicity; reduction of HCV titer from pretreatment baseline, genotype 2a (HCV genotype 2a; 50 mg/kg and 10 mg/kg daily, 6-week treatment): 1.5 log; HCV titers during the treatment period (drug resistance), genotype 2a (HCV genotype 2a; during treatment): continued to decline during the treatment period without rebound
4 | COc1ccc(CN2CCC(N(CCc3ccccc3)Cc3ccccc3)CC2)c(OC)c1 [NCGC00345021, N-Benzyl-1-(2,4-dimethoxybenzyl)-N-phenethylpiperidin-4-amine] | low inhibitory activity | did not show any inhibitory effect | no significant inhibitory activities |  |  |  |  |  |  |  | % RLU at 10 μM, HCVpp GT 1a (HCVpp GT 1a; mean of five replicates ±SEM): 66.3 ± 9.49 % RLU; % RLU at 10 μM, HCV subgenomic replicon GT 2a cell line (HCV replicon GT 2a; mean of five replicates ±SEM): 54.4 ± 2.96 % RLU; inhibition of viral replication, transient GT 2a replicon (GT 2a replicon RNA; 10 μM, Huh 7.5.1 cells): modest inhibition; % RLU at 10 μM, HCV subgenomic replicon Transient GT 2a (GT 2a replicon RNA; mean of five replicates ±SEM): 139 ± 16.4 % RLU; % RLU at 10 μM, HCVsc (HCVsc, genotype 2a; mean of five replicates ±SEM): 104 ± 9.95 % RLU; inhibition at 0.01 µM (HCV-Luc [1]; at 10 nM): > 90%; % RLU at 10 μM, VSVpp (VSVpp): 103 ± 6.73 % RLU; inhibition on VSVpp (VSVpp; 10 μM): no inhibition; Dengue RVP reproducibility (Dengue RVP): dose-dependent inhibition; TCID50 values [5]: dose-dependent reduction; reduction in extracellular RNA level ([2]; at the highest concentration): 3 log fold; reduction in intracellular RNA copies ([2]; at the highest concentration): about 1 log fold
5 | IFN-α |  |  |  |  |  |  |  |  |  |  | CalcuSyn CI value (HCV-Luc [6]; (S)-CCZ in combination with the drug named): 0.609 ± 0.128; antiviral effect of (S)-CCZ with the drug named (HCV-Luc [6]; combination with (S)-CCZ): highly synergistic
